Assay [1] concerns zebrafish model of intestinal mucosal injury. Description: Efficacy in relieving colitis: intestinal lumen area in TNBS-treated zebrafish. In kind it is in vivo. As to conditions: for Intestinal lumen area (pixels, mean ± SE): 2 days after TNBS, n = 10. The method in brief: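 TNBS in water for 2 days at 28 °C in 3 dpf wild-type AB zebrafish, then test polypeptide in water for 2 days at 28 °C at 250, 500 or 1000 μg/mL; later rounds used 1000 μg/mL. Prednisone control at 15.0 μg/mL. Intestinal lumen area imaged in 10 fish/group, mean±SE.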

For assay [2], the system named is TNBS-induced model of acute inflammatory bowel disease (UC) in SD rat. The experiment in a line: TNBS-induced model of acute inflammatory bowel disease (UC) in SD rat. In kind it is in vivo. An excerpt: In this experiment, a rat model of ulcerative colitis was established by administering trinitrobenzene sulfonic acid (TNBS) to laboratory animal male SD rats for a single enema intervention. Acute colitis in rats induced by trinitrobenzene sulfonic acid (TNBS) is an immune response induced by cytokines secreted by Th1 type cells. […] This model is simple to establish and has good reproducibility. It is an experimental animal model widely used in evaluating drugs for the treatment of inflammatory bowel disease. […] During the experimental treatment period (D1-D14), the body weight and general clinical observation indicators (including but not limited to food intake, water intake, activity level and defecation, etc.) of the animals in each experimental group were dynamically collected. At the same time, based on the relevant scoring standards for the disease activity index of ulcerative colitis, the reactivity such as the weight loss degree, stool morphology and trait, and bloody stool of the animals in each experimental group after TNBS induction were scored, and the disease activity index (DAI) of ulcerative colitis was calculated, once a day for 14 consecutive days. At the end point of the experiment, colon tissues of animals in each experimental group were collected, and the length and weight of the colon were measured and then the non-autopsy images were collected. Then the colon was cut open along the intestinal wall longitudinally and autopsy images were collected. Based on the “Criteria for Scoring Gross Morphological Manifestations of the Colon”, the gross damage with respect to colon adhesions, colon ulcers and inflammation of animals in each experimental group was observed and scored. Ulcer images were collected under a stereomicroscope and the area of colon ulcer foci was calculated, followed by routine fixation.

The mark [3] stands for this setting: D 0-D 14, compound 12: 0.8 mg/kg, mesalazine: 30.0 mg/kg, enema once a day 14 days, mean ± SD.
[4] abbreviates: D 14, compound 12: 0.8 mg/kg, mesalazine: 30.0 mg/kg, enema once a day 14 days, mean ± SD.
Where [5] appears, read: experimental endpoint, compound 12: 0.8 mg/kg, mesalazine: 30.0 mg/kg, enema once a day 14 days, mean ± SD.
Where [6] appears, read: set treatment regimen, enema once a day 14 days, vs model control group.
Setting [7] is: set treatment regimen, experimental endpoint, vs model control group.

Entries after “also recorded” stand apart in the source; their conditions may differ.

Take “Pro-Val-Pro-Gln (PVPQ; printed: Pro-Val-Pro-Gln) [Compound 12]”: the “Intestinal lumen area (pixels, mean ± SE)” value in assay [1] (250 μg/mL in water) is recorded as 48857 ± 5649 pixels. Also, in assay [1] (500 μg/mL in water), the “Intestinal lumen area (pixels, mean ± SE)” value came out at 43802 ± 3228 pixels. In assay [1] (1000 μg/mL in water), the “Intestinal lumen area (pixels, mean ± SE)” value turned out to be 26727 ± 2106 pixels. In addition, in assay [1] (1000 μg/mL, significance vs model control group of the same batch), the “Activity in relieving intestinal lumen dilatation” value is “** (** p < 0.01)”. Besides, the “Intestinal lumen area compared with the model control group (in words)” value in assay [1] (250, 500, 1000 μg/mL, Table 4) is recorded as “significant statistical differences compared with the model control group”. In addition, in assay [2] (D 0, before treatment, compound 12: 0.8 mg/kg, mesalazine: 30.0 mg/kg, enema once a day, mean ± SD), the “Body weight, Grouping day (D 0, g)” value was 276.36 ± 7.47 g. Moreover, in assay [2] (setting [3]), the “DAI score AUC(0-14 d) (D 0-D 14)” value was 46.40 ± 3.68 and the “Weight change range (D 0-D 14, %)” value was −1.52 ± 12.20%. Also, the “DAI score, Experimental day 1 (D 1, point)” value in assay [2] (D 1, compound 12: 0.8 mg/kg, mesalazine: 30.0 mg/kg, enema once a day, mean ± SD) was determined as 4.1 ± 0.6 point. The “DAI score, Experimental day 3 (D 3, point)” value in assay [2] (D 3, compound 12: 0.8 mg/kg, mesalazine: 30.0 mg/kg, enema once a day, mean ± SD) is 4.9 ± 1.0 point. For the same substance, the “Body weight, Experimental day 5 (D 5, g)” value in assay [2] (D 5, compound 12: 0.8 mg/kg, mesalazine: 30.0 mg/kg, enema once a day, mean ± SD) was 244.90 ± 21.75 g. For the same substance, in assay [2] (setting [4]), the “Body weight, Experimental endpoint (D 14, g)” value was found to be 272.00 ± 33.21 g and the “DAI score, Experimental endpoint (D 14, point)” value is 1.4 ± 1.8 point. In assay [2] (setting [5]), the “Colon length (cm)” value is listed as 13.74 ± 1.97 cm; the “Colon ulcer and inflammation score (point)” value is 2.30 ± 0.82 point; the “Colon ulcer area (cm^2)” value is 3.79 ± 1.63^# cm^2; the “Colon weight” value amounted to 2.10 ± 0.19 g. In addition, in assay [2] (setting [5]), the “Colon weight/length ratio (100* g/cm)” value is 15.68 ± 3.14# 100* g/cm and the “Colonic adhesion score (point)” value stood at 1.20 ± 0.63 point. The “Overall therapeutic effect in the rat model of ulcerative colitis (in words)” value in assay [2] (set treatment regimen) is “significant therapeutic effects”. Moreover, in assay [2] (setting [6]), the “Effect on disease progression of ulcerative colitis / DAI scores (in words)” value is on record as “significant improvement effect on the disease progression of ulcerative colitis” and the “Effect on weight gain inhibition / weight loss response of model animals (in words)” value was “no obvious improved therapeutic effect; also recorded: did not show a significant weight improvement effect”. For the same substance, in assay [2] (setting [7]), the “Effect on colon atrophy process / colon weight/length ratio (in words)” value is recorded as “colon weight/length ratio was significantly decreased”; the “Effect on gross colon injury status (colonic adhesion, ulcer and inflammation) and colon ulcer area (in words)” value was “obvious therapeutic effects; also recorded: significant therapeutic effects on the gross damage manifestation of the colon”.

The values are drawn from patent US20250101063A1, “POLYPEPTIDE COMPOUND AND USE THEREOF IN TREATMENT OF ENTERITIS” (Sichuan Gooddoctor Panxi Pharmaceutical Co., Ltd., priority 2022, published 2025).
